Columns and labels:
Assay in all cases: cells
MLMA = format: functional, cell-based, Homo sapiens; details: Homo sapiens, MLMA;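 also: growth inhibition of MLMA cells (human), determined through a cell viability readout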
Description: SANGER: Inhibition of human MLMA cell growth in a cell viability assay.

DMS-79 = format: functional, cell-based, Homo sapiens; details: Homo sapiens, DMS-79;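 also: growth inhibition measured with a cell viability assay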
Description: SANGER: Inhibition of human DMS-79 cell growth in a cell viability assay.

NB17 = format: functional, cell-based, Homo sapiens; details: Homo sapiens, NB17;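 also: growth inhibition of NB17 cells, read out with a cell viability assay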
Description: SANGER: Inhibition of human NB17 cell growth in a cell viability assay.

TGW = format: functional, cell-based, Homo sapiens; details: Homo sapiens, TGW;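 also: growth inhibition of human TGW cells, read out with a cell viability assay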
Description: SANGER: Inhibition of human TGW cell growth in a cell viability assay.

CTB-1 = format: functional, cell-based, Homo sapiens; details: Homo sapiens, CTB-1
Description: SANGER: Inhibition of human CTB-1 cell growth in a cell viability assay.

TGBC1TKB = format: functional, cell-based, Homo sapiens; details: Homo sapiens, TGBC1TKB;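 also: growth inhibition of TGBC1TKB cells, read out by a cell viability assay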
Description: SANGER: Inhibition of human TGBC1TKB cell growth in a cell viability assay.

NCI-H69 = format: functional, cell-based, Homo sapiens; details: Homo sapiens, NCI-H69;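 also: growth inhibition of the cell line, read out with a cell viability assay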
Description: SANGER: Inhibition of human NCI-H69 cell growth in a cell viability assay.

K562 = format: functional, cell-based, Homo sapiens; details: Homo sapiens, K562
Description: SANGER: Inhibition of human K-562 cell growth in a cell viability assay.

SW982 = format: functional, cell-based, Homo sapiens; details: Homo sapiens, SW982;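 also: growth inhibition of SW982 cells, read out with a cell viability assay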
Description: SANGER: Inhibition of human SW982 cell growth in a cell viability assay.

LS-513 = format: functional, cell-based, Homo sapiens; details: Homo sapiens, LS-513
Description: SANGER: Inhibition of human LS-513 cell growth in a cell viability assay.

DSH1 = format: functional, cell-based, Homo sapiens; details: Homo sapiens, DSH1;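 also: growth inhibition of human DSH1 cells, measured with a cell viability readout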
Description: SANGER: Inhibition of human DSH1 cell growth in a cell viability assay.

SK-MEL-2 = format: functional, cell-based, Homo sapiens; details: Homo sapiens, SK-MEL-2;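 also: growth inhibition of human SK-MEL-2 cells measured with a cell viability assay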
Description: SANGER: Inhibition of human SK-MEL-2 cell growth in a cell viability assay.

HL-60 = format: functional, cell-based, Homo sapiens; details: Homo sapiens, HL-60;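 also: growth inhibition of human HL-60 cells, read out with a cell viability assay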
Description: SANGER: Inhibition of human HL-60 cell growth in a cell viability assay.

MC116 = format: functional, cell-based, Homo sapiens; details: Homo sapiens, MC116;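 also: growth inhibition of MC116 cells, read out with a cell viability assay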
Description: SANGER: Inhibition of human MC116 cell growth in a cell viability assay.

ONS-76 = format: functional, cell-based, Homo sapiens; details: Homo sapiens, ONS-76;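 also: growth inhibition of human ONS-76 cells, read out with a cell viability assay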
Description: SANGER: Inhibition of human ONS-76 cell growth in a cell viability assay.

CW-2 = format: functional, cell-based, Homo sapiens; details: Homo sapiens, CW-2;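 also: growth inhibition of CW-2 cells, read out by a cell viability assay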
Description: SANGER: Inhibition of human CW-2 cell growth in a cell viability assay.

JAR = format: functional, cell-based, Homo sapiens; details: Homo sapiens, JAR;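 also: growth inhibition of human JAR cells determined with a cell viability assay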
Description: SANGER: Inhibition of human JAR cell growth in a cell viability assay.

NH-12 = format: functional, cell-based, Homo sapiens; details: Homo sapiens, NH-12;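 also: growth inhibition of NH-12 cells, read out with a cell viability assay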
Description: SANGER: Inhibition of human NH-12 cell growth in a cell viability assay.

MFM-223 = format: functional, cell-based, Homo sapiens; details: Homo sapiens, MFM-223
Description: SANGER: Inhibition of human MFM-223 cell growth in a cell viability assay.

HH = format: functional, cell-based, Homo sapiens; details: Homo sapiens, HH
Description: SANGER: Inhibition of human HH cell growth in a cell viability assay.

NCI-H1092 = format: functional, cell-based, Homo sapiens; details: Homo sapiens, NCI-H1092;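 also: cell growth inhibition measured with a cell viability assay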
Description: SANGER: Inhibition of human NCI-H1092 cell growth in a cell viability assay.

SK-UT-1 = format: functional, cell-based, Homo sapiens; details: Homo sapiens, SK-UT-1;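 also: growth inhibition of SK-UT-1 cells, measured by a cell viability assay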
Description: SANGER: Inhibition of human SK-UT-1 cell growth in a cell viability assay.

GAK = format: functional, cell-based, Homo sapiens; details: Homo sapiens, GAK;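 also: cell growth inhibition read out by a cell viability assay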
Description: SANGER: Inhibition of human GAK cell growth in a cell viability assay.

CGTH-W-1 = format: functional, cell-based, Homo sapiens; details: Homo sapiens, CGTH-W-1;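 also: growth inhibition of human CGTH-W-1 cells measured by cell viability assay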
Description: SANGER: Inhibition of human CGTH-W-1 cell growth in a cell viability assay.

OS-RC-2 = format: functional, cell-based, Homo sapiens; details: Homo sapiens, OS-RC-2;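 also: growth inhibition of human OS-RC-2 cells, measured by a cell viability assay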
Description: SANGER: Inhibition of human OS-RC-2 cell growth in a cell viability assay.

QIMR-WIL = format: functional, cell-based, Homo sapiens; details: Homo sapiens, QIMR-WIL;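 also: growth inhibition of QIMR-WIL cells, read out with a cell viability assay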
Description: SANGER: Inhibition of human QIMR-WIL cell growth in a cell viability assay.

LS-123 = format: functional, cell-based, Homo sapiens; details: Homo sapiens, LS-123
Description: SANGER: Inhibition of human LS-123 cell growth in a cell viability assay.

KM12 = format: functional, cell-based, Homo sapiens; details: Homo sapiens, KM12;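 also: KM12 cell growth inhibition, read out with a cell viability assay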
Description: SANGER: Inhibition of human KM12 cell growth in a cell viability assay.

OCUB-M = format: functional, cell-based, Homo sapiens; details: Homo sapiens, OCUB-M;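 also: growth inhibition of the cancer cell line, read out through a cell viability assay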
Description: SANGER: Inhibition of human OCUB-M cell growth in a cell viability assay.

HD-MY-Z = format: functional, cell-based, Homo sapiens; details: Homo sapiens, HD-MY-Z;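 also: growth inhibition of HD-MY-Z cells, read out with a cell viability assay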
Description: SANGER: Inhibition of human HD-MY-Z cell growth in a cell viability assay.

EW-11 = format: functional, cell-based, Homo sapiens; details: Homo sapiens, EW-11;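 also: growth inhibition of human EW-11 cells, measured with a cell viability assay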
Description: SANGER: Inhibition of human EW-11 cell growth in a cell viability assay.

U-87 MG = format: functional, cell-based, Homo sapiens, U-87MG ATCC; details: Homo sapiens, U-87 MG;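 also: growth inhibition of the cells measured with a viability assay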
Description: SANGER: Inhibition of human U-87-MG cell growth in a cell viability assay.

KMOE-2 = format: functional, cell-based, Homo sapiens; details: Homo sapiens, KMOE-2;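 also: growth inhibition of human KMOE-2 cells, read out with a cell viability assay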
Description: SANGER: Inhibition of human KMOE-2 cell growth in a cell viability assay.

SNU-C2B = format: functional, cell-based, Homo sapiens; details: Homo sapiens, SNU-C2B;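 also: cell viability readout used to measure compound-driven suppression of SNU-C2B cell proliferation, IC50 marking half-maximal growth inhibition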
Description: SANGER: Inhibition of human SNU-C2B cell growth in a cell viability assay.

KU812 cell line = format: functional, cell-based, Homo sapiens; details: Homo sapiens, KU812;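 also: growth inhibition of KU812 cells, read out with a cell viability assay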
Description: SANGER: Inhibition of human KU812 cell growth in a cell viability assay.

LC-2-ad = format: functional, cell-based, Homo sapiens; details: Homo sapiens, LC-2-ad;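 also: growth inhibition of human LC-2-ad cells, read out with a cell viability assay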
Description: SANGER: Inhibition of human LC-2-ad cell growth in a cell viability assay.

LAMA-84 = format: functional, cell-based, Homo sapiens; details: Homo sapiens, LAMA-84;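 also: growth inhibition of LAMA-84 cells, read out with a cell viability assay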
Description: SANGER: Inhibition of human LAMA-84 cell growth in a cell viability assay.

8-MG-BA = format: functional, cell-based, Homo sapiens; details: Homo sapiens, 8-MG-BA;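 also: growth inhibition of 8-MG-BA cells, read out with a cell viability assay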
Description: SANGER: Inhibition of human 8-MG-BA cell growth in a cell viability assay.

KURAMOCHI = format: functional, cell-based, Homo sapiens; details: Homo sapiens, KURAMOCHI;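 also: growth inhibition of KURAMOCHI cells, read out with a cell viability assay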
Description: SANGER: Inhibition of human KURAMOCHI cell growth in a cell viability assay.

SBC-1 = format: functional, cell-based, Homo sapiens; details: Homo sapiens, SBC-1;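 also: cell viability assay measuring growth inhibition of the SBC-1 cell line, IC50 being the concentration that halves growth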
Description: SANGER: Inhibition of human SBC-1 cell growth in a cell viability assay.

HAL-01 = format: functional, cell-based, Homo sapiens; details: Homo sapiens, HAL-01;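 also: growth inhibition of human HAL-01 cells, read out with a cell viability assay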
Description: SANGER: Inhibition of human HAL-01 cell growth in a cell viability assay.

EW-13 = format: functional, cell-based, Homo sapiens; details: Homo sapiens, EW-13;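 also: growth inhibition of EW-13 cells, read out with a cell viability assay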
Description: SANGER: Inhibition of human EW-13 cell growth in a cell viability assay.

A388 = format: functional, cell-based, Homo sapiens; details: Homo sapiens, A388;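 also: growth inhibition of human A388 cells, read out with a cell viability assay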
Description: SANGER: Inhibition of human A388 cell growth in a cell viability assay.

COR-L88 = format: functional, cell-based, Homo sapiens; details: Homo sapiens, COR-L88;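 also: growth inhibition of COR-L88 cells, read out with a cell viability assay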
Description: SANGER: Inhibition of human COR-L88 cell growth in a cell viability assay.

MS-1 = format: functional, cell-based, Homo sapiens; details: Homo sapiens, MS-1;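 also: growth inhibition of MS-1 cells, read out by cell viability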
Description: SANGER: Inhibition of human MS-1 cell growth in a cell viability assay.

COLO-668 = format: functional, cell-based, Homo sapiens; details: Homo sapiens, COLO-668
Description: SANGER: Inhibition of human COLO-668 cell growth in a cell viability assay.

P30-OHK = format: functional, cell-based, Homo sapiens; details: Homo sapiens, P30-OHK;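 also: growth inhibition of the P30-OHK cell line, read out with a cell viability assay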
Description: SANGER: Inhibition of human P30-OHK cell growth in a cell viability assay.

ES3 = format: functional, cell-based, Homo sapiens; details: Homo sapiens, ES3;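 also: growth inhibition of ES3 cells, read out with a cell viability assay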
Description: SANGER: Inhibition of human ES3 cell growth in a cell viability assay.

HCC 2998 = format: functional, cell-based, Homo sapiens; details: Homo sapiens, HCC 2998;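 also: growth inhibition of human HCC2998 cells, measured with a cell viability read-out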
Description: SANGER: Inhibition of human HCC2998 cell growth in a cell viability assay.

Structure (SMILES): COc1cc(-c2nn([C@H]3CC[C@H](N4CCN(C(C)=O)CC4)CC3)c3ncnc(N)c23)ccc1NC(=O)c1cc2ccccc2n1C
- IC50 (MLMA): 209 nM
- IC50 (DMS-79): > 5120 nM
- IC50 (NB17): > 5120 nM
- IC50 (TGW): > 5120 nM
- IC50 (CTB-1): > 5120 nM
- IC50 (TGBC1TKB): 3630 nM
- IC50 (NCI-H69): > 5120 nM
- IC50 (K562): 392 nM
- IC50 (SW982): 387 nM
- IC50 (LS-513): > 5120 nM
- IC50 (DSH1): > 5120 nM
- IC50 (SK-MEL-2): > 5120 nM
- IC50 (HL-60): > 5120 nM
- IC50 (MC116): 856 nM
- IC50 (ONS-76): > 5120 nM
- IC50 (CW-2): > 5120 nM
- IC50 (JAR): > 5120 nM
- IC50 (NH-12): > 5120 nM
- IC50 (MFM-223): > 5120 nM
- IC50 (HH): > 5120 nM
- IC50 (NCI-H1092): > 5120 nM
- IC50 (SK-UT-1): > 5120 nM
- IC50 (GAK): > 5120 nM
- IC50 (CGTH-W-1): > 5120 nM
- IC50 (OS-RC-2): 755 nM
- IC50 (QIMR-WIL): 2870 nM
- IC50 (LS-123): > 5120 nM
- IC50 (KM12): > 5120 nM
- IC50 (OCUB-M): 5030 nM
- IC50 (HD-MY-Z): 4880 nM
- IC50 (EW-11): > 5120 nM
- IC50 (U-87 MG): > 5120 nM
- IC50 (KMOE-2): > 5120 nM
- IC50 (SNU-C2B): > 5120 nM
- IC50 (KU812 cell line): > 5120 nM
- IC50 (LC-2-ad): 483 nM
- IC50 (LAMA-84): 147 nM
- IC50 (8-MG-BA): 4610 nM
- IC50 (KURAMOCHI): 896 nM
- IC50 (SBC-1): > 5120 nM
- IC50 (HAL-01): 3080 nM
- IC50 (EW-13): > 5120 nM
- IC50 (A388): 4340 nM
- IC50 (COR-L88): > 5120 nM
- IC50 (MS-1): > 5120 nM
- IC50 (COLO-668): > 5120 nM
- IC50 (P30-OHK): > 5120 nM
- IC50 (ES3): > 5120 nM

Structure (SMILES): Cn1cnc2c(F)c(Nc3ccc(Br)cc3Cl)c(C(=O)NOCCO)cc21 [SELUMETINIB]
- IC50 (MLMA): > 4000 nM
- IC50 (NB17): > 4000 nM
- IC50 (TGW): > 4000 nM
- IC50 (CTB-1): > 4000 nM
- IC50 (TGBC1TKB): > 4000 nM
- IC50 (NCI-H69): > 4000 nM
- IC50 (K562): > 4000 nM
- IC50 (SW982): > 4000 nM
- IC50 (LS-513): 1420 nM
- IC50 (DSH1): > 4000 nM
- IC50 (SK-MEL-2): 405 nM
- IC50 (HL-60): 24.6 nM
- IC50 (MC116): > 4000 nM
- IC50 (ONS-76): 245 nM
- IC50 (CW-2): > 4000 nM
- IC50 (JAR): > 4000 nM
- IC50 (NH-12): > 4000 nM
- IC50 (MFM-223): > 4000 nM
- IC50 (HH): > 4000 nM
- IC50 (NCI-H1092): > 4000 nM
- IC50 (GAK): 1900 nM
- IC50 (CGTH-W-1): > 4000 nM
- IC50 (OS-RC-2): 2400 nM
- IC50 (QIMR-WIL): 1340 nM
- IC50 (LS-123): 3620 nM
- IC50 (KM12): 2540 nM
- IC50 (OCUB-M): > 4000 nM
- IC50 (HD-MY-Z): > 4000 nM
- IC50 (EW-11): > 4000 nM
- IC50 (U-87 MG): > 4000 nM
- IC50 (HCC 2998): 269 nM
- IC50 (SNU-C2B): > 4000 nM
- IC50 (KU812 cell line): 212 nM
- IC50 (LC-2-ad): > 4000 nM
- IC50 (LAMA-84): 456 nM
- IC50 (8-MG-BA): > 4000 nM
- IC50 (KURAMOCHI): > 4000 nM
- IC50 (SBC-1): > 4000 nM
- IC50 (HAL-01): 1700 nM
- IC50 (EW-13): > 4000 nM
- IC50 (A388): > 4000 nM
- IC50 (COR-L88): > 4000 nM
- IC50 (MS-1): > 4000 nM
- IC50 (COLO-668): > 4000 nM
- IC50 (P30-OHK): > 4000 nM
- IC50 (ES3): > 4000 nM

Structure (SMILES): COc1cc2ncn(-c3cc(OCc4ccccc4C(F)(F)F)c(C(N)=O)s3)c2cc1OC [GW843682X]
- IC50 (MLMA): 24.9 nM
- IC50 (DMS-79): > 256 nM
- IC50 (NB17): 41 nM
- IC50 (TGW): 34.7 nM
- IC50 (CTB-1): > 256 nM
- IC50 (TGBC1TKB): 33.6 nM
- IC50 (NCI-H69): 181 nM
- IC50 (K562): 59.4 nM
- IC50 (SW982): 25.3 nM
- IC50 (LS-513): 212 nM
- IC50 (DSH1): > 256 nM
- IC50 (SK-MEL-2): > 256 nM
- IC50 (HL-60): 25.2 nM
- IC50 (MC116): 36.4 nM
- IC50 (ONS-76): 77.8 nM
- IC50 (CW-2): > 256 nM
- IC50 (JAR): 56.8 nM
- IC50 (NH-12): > 256 nM
- IC50 (MFM-223): > 256 nM
- IC50 (HH): 98.8 nM
- IC50 (NCI-H1092): > 256 nM
- IC50 (SK-UT-1): 23.7 nM
- IC50 (GAK): 185 nM
- IC50 (CGTH-W-1): > 256 nM
- IC50 (OS-RC-2): 188 nM
- IC50 (QIMR-WIL): 42.3 nM
- IC50 (LS-123): 193 nM
- IC50 (KM12): 16.5 nM
- IC50 (OCUB-M): 12.2 nM
- IC50 (HD-MY-Z): 66.3 nM
- IC50 (EW-11): > 256 nM
- IC50 (U-87 MG): > 256 nM
- IC50 (KMOE-2): 231 nM
- IC50 (SNU-C2B): 7.53 nM
- IC50 (KU812 cell line): 85.2 nM
- IC50 (LC-2-ad): 15.6 nM
- IC50 (LAMA-84): 39.9 nM
- IC50 (8-MG-BA): 19.4 nM
- IC50 (KURAMOCHI): 50.1 nM
- IC50 (SBC-1): > 256 nM
- IC50 (HAL-01): 80.8 nM
- IC50 (EW-13): > 256 nM
- IC50 (A388): 15.2 nM
- IC50 (COR-L88): 78.4 nM
- IC50 (MS-1): 16 nM
- IC50 (COLO-668): > 256 nM
- IC50 (P30-OHK): > 256 nM
- IC50 (ES3): > 256 nM

— ChEMBL document CHEMBL1201861, “Genomics of Drug Sensitity in Cancer screening data, Wellcome Trust Sanger Institute”
